Results published in PubChem BioAssay AID248 (DTP/NCI, 2004).
Where “and” joins values, the source holds several entries; their conditions need not be identical. Equal entries are not always repeated. Inconclusive results and toxic doses are left out. No stated cut-off is given here; in the data, active means T/C of 150% or more; inactive means T/C below 125%.

System: L1210 leukemia ip in BDF1 mice, survival T/C
Assay: NCI In Vivo Anticancer Drug Screen. Data for tumor model L1210 Leukemia (intraperitoneal) in B6D2F1 (BDF1) mice
Conditions: endpoint: mean survival time, higher = longer survival
Method in brief: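 Antitumor effect is assessed in tumor-bearing animals. Survival in the compound arm is compared with a vehicle-dosed control arm and expressed as their quotient.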

Measured: T/C

C[n+]1cc(-c2ccccc2)cc2ccccc21
inactive: dose: 75.0 mg/kg/injection, schedule: Q01DX001 (ip), vehicle: saline 97 % of control

CN(C)C1=C(N2CC2)C(=O)C(N(C)C)=C(N2CC2)C1=O
inactive: dose: 0.09 mg/kg/injection, schedule: Q01DX001 (ip), vehicle: saline 107 % of control | dose: 0.09 mg/kg/injection, schedule: Q01DX009 (ip), vehicle: saline 93 % of control and 116 % of control | dose: 0.09 mg/kg/injection, schedule: Q04DX003 (ip), vehicle: saline 94 % of control and 107 % of control | dose: 0.18 mg/kg/injection, schedule: Q01DX001 (ip), vehicle: saline 108 % of control | dose: 0.18 mg/kg/injection, schedule: Q01DX009 (ip), vehicle: saline 96 % of control and 108 % of control | dose: 0.37 mg/kg/injection, schedule: Q01DX001 (ip), vehicle: saline 97 % of control | dose: 0.37 mg/kg/injection, schedule: Q01DX009 (ip), vehicle: saline 114 % of control and 116 % of control | dose: 0.75 mg/kg/injection, schedule: Q01DX001 (ip), vehicle: saline 98 % of control | dose: 0.75 mg/kg/injection, schedule: Q01DX009 (ip), vehicle: saline 110 % of control | dose: 1.5 mg/kg/injection, schedule: Q01DX001 (ip), vehicle: saline 115 % of control | dose: 1.5 mg/kg/injection, schedule: Q01DX009 (ip), vehicle: saline 93 % of control

NC(N)=N/N=C(/c1cccs1)C1CC1
inactive: dose: 15.0 mg/kg/injection, schedule: Q01DX Z (ip), vehicle: methylcellulose (MC) 101 % of control | dose: 15.0 mg/kg/injection, schedule: Q01DX Z (oral), vehicle: methylcellulose (MC) 92 % of control | dose: 30.0 mg/kg/injection, schedule: Q01DX Z (ip), vehicle: methylcellulose (MC) 96 % of control | dose: 30.0 mg/kg/injection, schedule: Q01DX Z (oral), vehicle: methylcellulose (MC) 97 % of control | dose: 60.0 mg/kg/injection, schedule: Q01DX Z (ip), vehicle: methylcellulose (MC) 110 % of control | dose: 120.0 mg/kg/injection, schedule: Q01DX Z (ip), vehicle: methylcellulose (MC) 97 % of control

COc1c(F)c(F)c(Oc2c(F)c(F)c(OC)c(F)c2F)c(F)c1F
inactive: dose: 100.0 mg/kg/injection, schedule: Q01DX001 (ip), vehicle: Klucel (hydroxypropylcellulose) (HPC) 99 % of control | dose: 200.0 mg/kg/injection, schedule: Q01DX001 (ip), vehicle: Klucel (hydroxypropylcellulose) (HPC) 92 % of control | dose: 400.0 mg/kg/injection, schedule: Q01DX001 (ip), vehicle: Klucel (hydroxypropylcellulose) (HPC) 94 % of control

CC(=O)OC1CCC2(C)C(CCC3C4CC(N5CC5)C(C(C)=O)C4(C)CC(=O)C32)C1 (centres undefined)
inactive: dose: 100.0 mg/kg/injection, schedule: Q01DX001 (sc), vehicle: steriod suspending solution 99 % of control | dose: 200.0 mg/kg/injection, schedule: Q01DX001 (sc), vehicle: steriod suspending solution 100 % of control | dose: 400.0 mg/kg/injection, schedule: Q01DX001 (sc), vehicle: steriod suspending solution 94 % of control

Cc1ccc(P(=O)(O)O)c([N+](=O)[O-])c1
inactive: dose: 100.0 mg/kg/injection, schedule: Q01DX001 (ip), vehicle: saline 94 % of control | dose: 200.0 mg/kg/injection, schedule: Q01DX001 (ip), vehicle: saline 92 % of control

CSc1ncc2ncn(C3OC(CO)C(O)C3O)c2n1 (centres undefined)
inactive: dose: 100.0 mg/kg/injection, schedule: Q01DX001 (ip), vehicle: carboxymethylcellulose (CMC) 108 % of control | dose: 100.0 mg/kg/injection, schedule: Q01DX009 (ip), vehicle: Klucel (hydroxypropylcellulose) (HPC) 91 % of control | dose: 100.0 mg/kg/injection, schedule: Q04DX003 (ip), vehicle: other 110 % of control | dose: 200.0 mg/kg/injection, schedule: Q01DX001 (ip), vehicle: carboxymethylcellulose (CMC) 102 % of control | dose: 200.0 mg/kg/injection, schedule: Q01DX009 (ip), vehicle: Klucel (hydroxypropylcellulose) (HPC) 98 % of control | dose: 200.0 mg/kg/injection, schedule: Q04DX003 (ip), vehicle: other 95 % of control | dose: 400.0 mg/kg/injection, schedule: Q01DX001 (ip), vehicle: carboxymethylcellulose (CMC) 98 % of control | dose: 400.0 mg/kg/injection, schedule: Q01DX009 (ip), vehicle: Klucel (hydroxypropylcellulose) (HPC) 89 % of control | dose: 400.0 mg/kg/injection, schedule: Q04DX003 (ip), vehicle: other 100 % of control

NC(=O)c1ccc([N+](=O)[O-])s1
inactive: dose: 25.0 mg/kg/injection, schedule: Q04DX003 (ip), vehicle: saline with Tween-80 98 % of control | dose: 50.0 mg/kg/injection, schedule: Q04DX003 (ip), vehicle: saline with Tween-80 104 % of control | dose: 100.0 mg/kg/injection, schedule: Q04DX003 (ip), vehicle: Klucel (hydroxypropylcellulose) (HPC) 100 % of control | dose: 100.0 mg/kg/injection, schedule: Q04DX003 (ip), vehicle: saline with Tween-80 96 % of control
